Values quoted from earlier work as cited in US20220347117A1 (priority 2021, published 2022).

C=CCN1CC[C@]23c4c5ccc(O)c4O[C@H]2C(=O)CC[C@@]3(O)[C@H]1C5 [naloxone]
pKa: about 7.94
